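1) Cells in 96-well plates. 2) Compound, 48 h, 5 concentrations. 3) Linear interpolation between surrounding doses. 4) Unreached endpoint = highest concentration. TGI: concentration producing complete growth inhibition.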

The first test deals with LXFL 529 NSCLC. The test can be described thus: NCI anticancer screen, dose series, 48 h.
Consider `Clc1ccc(C2N3CCCCC3[C@@H]3c4[nH]c5ccccc5c4CCN23)cc1` (some centres undefined), for which the TGI is over 100 µM.

Molecule `CCCCCCCCCCCCCC(=O)OC1CC(=O)OC1CO` (centres undefined) came in with a TGI of over 100 µM.

The subject of the next test is ACHN renal. The test is described as follows: NCI anticancer screen, dose series, 48 h.
`O=C(N/N=C/c1ccccc1O)c1cccc([N+](=O)[O-])c1`: the TGI was over 100 µM.

As to `N#C/C(=C/c1ccsc1)C(=O)c1ccccc1`, the TGI is over 100 µM.

In turn, `Clc1ccc(C2N3CCCCC3[C@@H]3c4[nH]c5ccccc5c4CCN23)cc1` (some centres undefined) came in with a TGI of over 100 µM.

With `CCCCCCCCCCCCCC(=O)OC1CC(=O)OC1CO` (centres undefined), the TGI was over 100 µM.

The test system of a further test is HOP-92 NSCLC. The test can be described thus: NCI anticancer screen, dose series, 48 h.
The molecule `N#C/C(=C/c1ccsc1)C(=O)c1ccccc1` had a TGI of over 100 µM.

In turn, `Clc1ccc(C2N3CCCCC3[C@@H]3c4[nH]c5ccccc5c4CCN23)cc1` (some centres undefined) gave a TGI of over 100 µM.

Take `CCCCCCCCCCCCCC(=O)OC1CC(=O)OC1CO` (centres undefined): the TGI came to 43.1 µM.

The test system of the next test is MALME-3M melanoma. The test is described as follows: NCI anticancer screen, dose series, 48 h.
On to `O=C(N/N=C/c1ccccc1O)c1cccc([N+](=O)[O-])c1`, for which the TGI is over 100 µM.

`N#C/C(=C/c1ccsc1)C(=O)c1ccccc1` came in with a TGI of over 100 µM.

`Clc1ccc(C2N3CCCCC3[C@@H]3c4[nH]c5ccccc5c4CCN23)cc1` (some centres undefined) gave a TGI of 90.4 µM.

`CCCCCCCCCCCCCC(=O)OC1CC(=O)OC1CO` (centres undefined): the TGI was over 100 µM.

The test system of the next test is RPMI-8226 leukemia. The test is described as follows: NCI anticancer screen, dose series, 48 h.
Consider `O=C(N/N=C/c1ccccc1O)c1cccc([N+](=O)[O-])c1`, for which the TGI is over 100 µM.

For the molecule `N#C/C(=C/c1ccsc1)C(=O)c1ccccc1`, the TGI is over 100 µM.

`Clc1ccc(C2N3CCCCC3[C@@H]3c4[nH]c5ccccc5c4CCN23)cc1` (some centres undefined) gave a TGI of over 100 µM.

In turn, `CCCCCCCCCCCCCC(=O)OC1CC(=O)OC1CO` (centres undefined) displayed a TGI of over 100 µM.

A further test deals with SK-MEL-28 melanoma. The test is described as follows: NCI anticancer screen, dose series, 48 h.
`O=C(N/N=C/c1ccccc1O)c1cccc([N+](=O)[O-])c1` displayed a TGI of over 100 µM.

For `N#C/C(=C/c1ccsc1)C(=O)c1ccccc1`, the TGI is over 100 µM.

`Clc1ccc(C2N3CCCCC3[C@@H]3c4[nH]c5ccccc5c4CCN23)cc1` (some centres undefined): the TGI was over 100 µM.

A further test deals with NCI-H226 lung. The test can be described thus: NCI anticancer screen, dose series, 48 h.
`N#C/C(=C/c1ccsc1)C(=O)c1ccccc1`: the TGI was over 100 µM.

A further test deals with HOP-18 NSCLC. The test can be described thus: NCI anticancer screen, dose series, 48 h.
`O=C(N/N=C/c1ccccc1O)c1cccc([N+](=O)[O-])c1` displayed a TGI of over 100 µM.

`N#C/C(=C/c1ccsc1)C(=O)c1ccccc1` returned a TGI of over 100 µM.

With `Clc1ccc(C2N3CCCCC3[C@@H]3c4[nH]c5ccccc5c4CCN23)cc1` (some centres undefined), the TGI was over 100 µM.

Turning to `CCCCCCCCCCCCCC(=O)OC1CC(=O)OC1CO` (centres undefined), the TGI worked out at 92.3 µM.

A further test deals with XF 498 CNS. The test can be described thus: NCI anticancer screen, dose series, 48 h.
`O=C(N/N=C/c1ccccc1O)c1cccc([N+](=O)[O-])c1`: the TGI was over 100 µM.

Take `N#C/C(=C/c1ccsc1)C(=O)c1ccccc1`: the TGI was over 100 µM.

`Clc1ccc(C2N3CCCCC3[C@@H]3c4[nH]c5ccccc5c4CCN23)cc1` (some centres undefined) came in with a TGI of over 100 µM.

As for `CCCCCCCCCCCCCC(=O)OC1CC(=O)OC1CO` (centres undefined), the TGI was over 100 µM.

The test system of another test is OVCAR-4 ovarian. The test is described as follows: NCI anticancer screen, dose series, 48 h.
`O=C(N/N=C/c1ccccc1O)c1cccc([N+](=O)[O-])c1` returned a TGI of over 100 µM.

In turn, `N#C/C(=C/c1ccsc1)C(=O)c1ccccc1` displayed a TGI of over 100 µM.

With `Clc1ccc(C2N3CCCCC3[C@@H]3c4[nH]c5ccccc5c4CCN23)cc1` (some centres undefined), the TGI is over 100 µM.

In turn, `CCCCCCCCCCCCCC(=O)OC1CC(=O)OC1CO` (centres undefined) showed a TGI of over 100 µM.

The subject of a further test is OVCAR-8 ovarian. The test can be described thus: NCI anticancer screen, dose series, 48 h.
Molecule `O=C(N/N=C/c1ccccc1O)c1cccc([N+](=O)[O-])c1` registered a TGI of over 100 µM.

The molecule `N#C/C(=C/c1ccsc1)C(=O)c1ccccc1` showed a TGI of over 100 µM.

The molecule `Clc1ccc(C2N3CCCCC3[C@@H]3c4[nH]c5ccccc5c4CCN23)cc1` (some centres undefined) gave a TGI of over 100 µM.

The molecule `CCCCCCCCCCCCCC(=O)OC1CC(=O)OC1CO` (centres undefined) returned a TGI of over 100 µM.

Another test concerns HCT-15 colon. The test is described as follows: NCI anticancer screen, dose series, 48 h.
In turn, `O=C(N/N=C/c1ccccc1O)c1cccc([N+](=O)[O-])c1` displayed a TGI of over 100 µM.

On to `N#C/C(=C/c1ccsc1)C(=O)c1ccccc1`, for which the TGI was over 100 µM.

Consider `Clc1ccc(C2N3CCCCC3[C@@H]3c4[nH]c5ccccc5c4CCN23)cc1` (some centres undefined), for which the TGI is over 100 µM.

As for `CCCCCCCCCCCCCC(=O)OC1CC(=O)OC1CO` (centres undefined), the TGI is 38.4 µM.

For the next test, the system named is HCC-2998 colon. The test can be described thus: NCI anticancer screen, dose series, 48 h.
With `O=C(N/N=C/c1ccccc1O)c1cccc([N+](=O)[O-])c1`, the TGI was over 100 µM.

`N#C/C(=C/c1ccsc1)C(=O)c1ccccc1`: the TGI is over 100 µM.

In the case of `Clc1ccc(C2N3CCCCC3[C@@H]3c4[nH]c5ccccc5c4CCN23)cc1` (some centres undefined), the TGI was over 100 µM.

`CCCCCCCCCCCCCC(=O)OC1CC(=O)OC1CO` (centres undefined) displayed a TGI of over 100 µM.

The test system of the next test is HT29 colon. The test is described as follows: NCI anticancer screen, dose series, 48 h.
`O=C(N/N=C/c1ccccc1O)c1cccc([N+](=O)[O-])c1` came in with a TGI of over 100 µM.

`N#C/C(=C/c1ccsc1)C(=O)c1ccccc1`: the TGI is over 100 µM.

As for `Clc1ccc(C2N3CCCCC3[C@@H]3c4[nH]c5ccccc5c4CCN23)cc1` (some centres undefined), the TGI amounted to 49.9 µM.

Consider `CCCCCCCCCCCCCC(=O)OC1CC(=O)OC1CO` (centres undefined), for which the TGI is over 100 µM.

For another test, the system named is HOP-62 NSCLC. The test can be described thus: NCI anticancer screen, dose series, 48 h.
As to `N#C/C(=C/c1ccsc1)C(=O)c1ccccc1`, the TGI is over 100 µM.

On to `Clc1ccc(C2N3CCCCC3[C@@H]3c4[nH]c5ccccc5c4CCN23)cc1` (some centres undefined), for which the TGI was over 100 µM.

Consider `CCCCCCCCCCCCCC(=O)OC1CC(=O)OC1CO` (centres undefined), for which the TGI is over 100 µM.

A further test has as its system TK-10 renal. The test can be described thus: NCI anticancer screen, dose series, 48 h.
`O=C(N/N=C/c1ccccc1O)c1cccc([N+](=O)[O-])c1` registered a TGI of over 84.6 µM.

As to `N#C/C(=C/c1ccsc1)C(=O)c1ccccc1`, the TGI was over 100 µM.

The values above are taken from PubChem BioAssay (NCI).
